Test results reported in patent publication US20220220128A1, “HETEROCYCLIC COMPOUNDS AS KINASE INHIBITORS, COMPOSITIONS COMPRISING THE HETEROCYCLIC COMPOUND, AND METHODS OF USE THEREOF” (JS Innopharm (Shanghai) Ltd, priority 2019, published 2022).
Blank lines part the entries; values can stand above or below the molecule they belong to.

Tests used:
human RET kinase = target: T1, human RET kinase (Homo sapiens, UniProt P07949); experiment: RET Kinase Assay (LanthaScreen TR-FRET enzymatic assay); assay type: biochemical; conditions: 7 nM RET, 23 μM ATP
T1 construct: purchased Carna 08-159
Outline: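 TR-FRET enzymatic read-out using 23 μM ATP, 3 μM FAM-P2 substrate and 7 nM human RET, after 15-min compound pretreatment at room temperature and a 1 h reaction at 28° C in HEPES pH 7.5 buffer. Percent of DMSO control fitted to nonlinear sigmoid curves for IC50.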

BAF3-KIF5B-RET cells = target: T2, BAF3-KIF5B-RET cells (Homo sapiens, UniProt P07949); experiment: BAF3-KIF5B-RET Cell proliferation assay (CellTiter-Glo, 72 hours); assay type: cell-based; conditions: growth inhibition, read-out: BA/F3-KIF5B-RET Cellular activity
T2 construct: fused on or other part: P33176 (Kinesin-1 heavy chain)
Outline: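 Cells seeded at 2,000/well in RPMI-1640 with 10% FBS and left 24 h at 37 °C, then exposed 72 h to nine compound levels (final 1 μM down to 0.00015 μM, 0.1% DMSO). CellTiter-Glo luminescence gave viability versus DMSO wells, from which IC50 was fitted.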

T1 sequence (P07949 29-1114): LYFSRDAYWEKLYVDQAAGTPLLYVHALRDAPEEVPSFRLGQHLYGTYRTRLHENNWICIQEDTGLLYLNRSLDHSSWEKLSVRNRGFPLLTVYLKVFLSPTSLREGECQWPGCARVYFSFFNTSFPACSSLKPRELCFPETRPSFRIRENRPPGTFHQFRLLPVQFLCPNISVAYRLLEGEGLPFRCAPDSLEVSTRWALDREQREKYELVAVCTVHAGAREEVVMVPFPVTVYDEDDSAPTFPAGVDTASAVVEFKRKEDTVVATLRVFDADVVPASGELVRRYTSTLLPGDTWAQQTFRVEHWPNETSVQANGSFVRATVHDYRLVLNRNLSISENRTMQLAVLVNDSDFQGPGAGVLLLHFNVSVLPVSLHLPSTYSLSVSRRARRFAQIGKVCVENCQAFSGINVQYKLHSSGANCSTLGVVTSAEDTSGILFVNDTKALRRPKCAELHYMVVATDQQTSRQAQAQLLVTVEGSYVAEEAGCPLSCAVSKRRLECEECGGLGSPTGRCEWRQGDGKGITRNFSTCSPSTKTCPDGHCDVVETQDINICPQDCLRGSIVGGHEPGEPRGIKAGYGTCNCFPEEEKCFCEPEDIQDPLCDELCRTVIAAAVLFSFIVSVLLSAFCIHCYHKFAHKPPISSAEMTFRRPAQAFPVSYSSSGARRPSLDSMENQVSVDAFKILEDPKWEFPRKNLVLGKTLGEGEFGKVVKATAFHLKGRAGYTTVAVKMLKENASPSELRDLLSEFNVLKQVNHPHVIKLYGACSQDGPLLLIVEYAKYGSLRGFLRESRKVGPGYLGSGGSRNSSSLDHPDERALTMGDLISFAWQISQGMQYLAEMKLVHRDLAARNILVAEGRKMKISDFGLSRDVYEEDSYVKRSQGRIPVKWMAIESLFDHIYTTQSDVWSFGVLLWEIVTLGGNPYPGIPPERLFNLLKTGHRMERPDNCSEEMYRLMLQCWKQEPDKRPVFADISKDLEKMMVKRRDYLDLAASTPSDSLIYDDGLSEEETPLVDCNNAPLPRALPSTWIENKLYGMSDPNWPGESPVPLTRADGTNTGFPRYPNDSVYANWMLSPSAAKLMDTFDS
T2 sequence (P07949 whole entry, change not shown, the tested form may be a part): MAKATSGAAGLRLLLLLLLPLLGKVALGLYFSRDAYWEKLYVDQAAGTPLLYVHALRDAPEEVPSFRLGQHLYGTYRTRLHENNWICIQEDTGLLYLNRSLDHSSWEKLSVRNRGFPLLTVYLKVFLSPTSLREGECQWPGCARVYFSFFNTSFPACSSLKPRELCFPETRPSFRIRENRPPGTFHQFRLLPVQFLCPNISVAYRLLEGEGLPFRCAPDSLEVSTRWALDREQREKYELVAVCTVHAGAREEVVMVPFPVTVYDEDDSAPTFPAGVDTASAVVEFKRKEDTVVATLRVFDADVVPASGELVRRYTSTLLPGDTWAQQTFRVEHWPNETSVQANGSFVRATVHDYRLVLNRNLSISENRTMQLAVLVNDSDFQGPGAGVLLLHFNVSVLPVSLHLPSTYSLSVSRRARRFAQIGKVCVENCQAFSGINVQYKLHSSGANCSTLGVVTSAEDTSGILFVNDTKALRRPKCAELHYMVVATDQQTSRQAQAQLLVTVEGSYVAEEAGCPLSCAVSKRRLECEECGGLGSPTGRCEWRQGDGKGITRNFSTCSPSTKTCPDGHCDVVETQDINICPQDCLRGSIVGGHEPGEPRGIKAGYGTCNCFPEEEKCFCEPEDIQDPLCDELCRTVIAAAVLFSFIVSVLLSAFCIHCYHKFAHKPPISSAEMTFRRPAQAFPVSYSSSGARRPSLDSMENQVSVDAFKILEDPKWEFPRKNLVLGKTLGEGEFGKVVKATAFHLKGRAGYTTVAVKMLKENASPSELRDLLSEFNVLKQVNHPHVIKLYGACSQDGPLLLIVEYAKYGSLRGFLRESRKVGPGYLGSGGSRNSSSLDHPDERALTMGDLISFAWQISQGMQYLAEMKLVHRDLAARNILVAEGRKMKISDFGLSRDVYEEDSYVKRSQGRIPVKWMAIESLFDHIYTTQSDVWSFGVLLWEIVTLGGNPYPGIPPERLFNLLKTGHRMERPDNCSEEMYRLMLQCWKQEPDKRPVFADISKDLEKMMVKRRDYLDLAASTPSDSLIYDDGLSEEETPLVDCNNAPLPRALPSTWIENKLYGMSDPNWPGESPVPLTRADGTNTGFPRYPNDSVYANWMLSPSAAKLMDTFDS

SMILES: CC(C)(O)COc1cc(-c2cnc(N3C4CC5CC3CC(O)(C5)C4)cn2)c2c(C#N)cnn2c1 [Example 157, 4-(5-((1R,3S,5s,7s)-5-hydroxy-2-azaadamantan-2-yl)pyrazin-2-yl)-6-(2-hydroxy-2-methylpropoxy)pyrazolo[1,5-a]pyridine-3-carbonitrile]
IC50 (human RET kinase): 10 to 50 nM | GI50 (BAF3-KIF5B-RET cells): > 100 nM

SMILES: Cn1cc(-c2cc(-c3ccc(N4C[C@@H]5C[C@@](O)(Cc6ccccn6)C[C@@H]5C4)nc3)c3c(C#N)cnn3c2)cn1 [Example 158, 4-(6-((3aR,5r,6aS)-5-hydroxy-5-(pyridin-2-ylmethyl)hexahydrocyclopenta[c]pyrrol-2(1H)-yl)pyridin-3-yl)-6-(1-methyl-1H-pyrazol-4-yl)pyrazolo[1,5-a]pyridine-3-carbonitrile]
IC50 (human RET kinase): ≤ 10 nM | GI50 (BAF3-KIF5B-RET cells): 10 to 50 nM

SMILES: CC(C)(O)COc1cc(-c2cnc(N3C[C@@H]4[C@@H](CNC(=O)c5c(F)cccc5Cl)[C@@H]4C3)cn2)c2c(C#N)cnn2c1 [Example 154, 2-chloro-N-(((1R,5S,6s)-3-(5-(3-cyano-6-(2-hydroxy-2-methylpropoxy)pyrazolo[1,5-a]pyridin-4-yl)pyrazin-2-yl)-3-azabicyclo[3.1.0]hexan-6-yl)methyl)-6-fluorobenzamide]
IC50 (human RET kinase): ≤ 10 nM | GI50 (BAF3-KIF5B-RET cells): 10 to 50 nM

SMILES: COc1ccc(C(=O)N[C@]2(C)C[C@H]3CN(c4cnc(-c5cc(-c6cnn(C)c6)cn6ncc(C#N)c56)cn4)C[C@H]3C2)cn1 [Example 145, N-((3aR,5s,6aS)-2-(5-(3-cyano-6-(1-methyl-1H-pyrazol-4-yl)pyrazolo[1,5-a]pyridin-4-yl)pyrazin-2-yl)-5-methyloctahydrocyclopenta[c]pyrrol-5-yl)-6-methoxynicotinamide]
IC50 (human RET kinase): ≤ 10 nM | GI50 (BAF3-KIF5B-RET cells): ≤ 10 nM

SMILES: COc1ccc(NC(=O)C23CC4CC(C2)N(c2cnc(-c5cc(OCC(C)(C)O)cn6ncc(C#N)c56)cn2)C(C4)C3)cn1 [Example 171, (1R,3S,5s,7s)-2-(5-(3-cyano-6-(2-hydroxy-2-methylpropoxy)pyrazolo[1,5-a]pyridin-4-yl)pyrazin-2-yl)-N-(6-methoxypyridin-3-yl)-2-azaadamantane-5-carboxamide]
IC50 (human RET kinase): ≤ 10 nM | GI50 (BAF3-KIF5B-RET cells): 10 to 50 nM

SMILES: CC(C)(O)COc1cc(-c2cnc(N3C4CC5CC3CC(NC(=O)c3ncccc3Cl)(C5)C4)cn2)c2c(C#N)cnn2c1 [Example 164, 3-chloro-N-((1R,3S,5s,7s)-2-(5-(3-cyano-6-(2-hydroxy-2-methylpropoxy)pyrazolo[1,5-a]pyridin-4-yl)pyrazin-2-yl)-2-azaadamantan-5-yl)picolinamide]
IC50 (human RET kinase): ≤ 10 nM | GI50 (BAF3-KIF5B-RET cells): ≤ 10 nM

SMILES: CCOc1cc(-c2cnc(N3C4CC5CC3CC(NC=O)(C5)C4)cn2)c2c(C#N)cnn2c1 [Example 161, N-((1R,3S,5s,7s)-2-(5-(3-cyano-6-ethoxypyrazolo[1,5-a]pyridin-4-yl)pyrazin-2-yl)-2-azaadamantan-5-yl)formamide]
IC50 (human RET kinase): ≤ 10 nM | GI50 (BAF3-KIF5B-RET cells): > 100 nM

SMILES: CC(C)(O)COc1cc(-c2cnc(N3C4CC5CC3CC(N)(C5)C4)cn2)c2c(C#N)cnn2c1 [Example 162, 4-(5-((1R,3S,5s,7s)-5-amino-2-azaadamantan-2-yl)pyrazin-2-yl)-6-(2-hydroxy-2-methylpropoxy)pyrazolo[1,5-a]pyridine-3-carbonitrile]
IC50 (human RET kinase): 10 to 50 nM | GI50 (BAF3-KIF5B-RET cells): > 100 nM

SMILES: Cn1cc(-c2cc(-c3ccc(N4C[C@@H]5[C@@H](CNC(=O)c6ccnc(C(F)(F)F)c6)[C@@H]5C4)nc3)c3c(C#N)cnn3c2)cn1 [Example 196, N-(((1R,5S,6s)-3-(5-(3-cyano-6-(1-methyl-1H-pyrazol-4-yl)pyrazolo[1,5-a]pyridin-4-yl)pyridin-2-yl)-3-azabicyclo[3.1.0]hexan-6-yl)methyl)-2-(trifluoromethyl)isonicotinamide]
IC50 (human RET kinase): ≤ 10 nM | GI50 (BAF3-KIF5B-RET cells): 50 to 100 nM

Second part, the molecule after the results:

IC50 (human RET kinase): ≤ 10 nM | GI50 (BAF3-KIF5B-RET cells): ≤ 10 nM
SMILES: COc1cncc(C(=O)N[C@]2(C)C[C@H]3CN(c4cnc(-c5cc(-c6cnn(C)c6)cn6ncc(C#N)c56)cn4)C[C@H]3C2)c1 [Example 148, N-((3aR,5s,6aS)-2-(5-(3-cyano-6-(1-methyl-1H-pyrazol-4-yl)pyrazolo[1,5-a]pyridin-4-yl)pyrazin-2-yl)-5-methyloctahydrocyclopenta[c]pyrrol-5-yl)-5-methoxynicotinamide]

IC50 (human RET kinase): ≤ 10 nM | GI50 (BAF3-KIF5B-RET cells): 10 to 50 nM
SMILES: COc1cc(C(=O)NC[C@@H]2[C@H]3CN(c4ccc(-c5cc(-c6cnn(C)c6)cn6ncc(C#N)c56)cn4)C[C@@H]23)ccn1 [Example 194, N-(((1R,5S,6s)-3-(5-(3-cyano-6-(1-methyl-1H-pyrazol-4-yl)pyrazolo[1,5-a]pyridin-4-yl)pyridin-2-yl)-3-azabicyclo[3.1.0]hexan-6-yl)methyl)-2-methoxyisonicotinamide]

IC50 (human RET kinase): ≤ 10 nM | GI50 (BAF3-KIF5B-RET cells): ≤ 10 nM
SMILES: CCOc1cc(-c2cnc(N3C4CC5CC3CC(NC(=O)c3ncccc3Cl)(C5)C4)cn2)c2c(C#N)cnn2c1 [Example 169, 3-chloro-N-((1R,3S,5s,7s)-2-(5-(3-cyano-6-ethoxypyrazolo[1,5-a]pyridin-4-yl)pyrazin-2-yl)-2-azaadamantan-5-yl)picolinamide]

IC50 (human RET kinase): ≤ 10 nM | GI50 (BAF3-KIF5B-RET cells): 10 to 50 nM
SMILES: Cn1cc(-c2cc(-c3cnc(N4C[C@@H]5C[C@](C)(NC(=O)c6ncccc6Cl)C[C@@H]5C4)cn3)c3c(C#N)cnn3c2)cn1 [Example 199, 3-chloro-N-((3aR,5r,6aS)-2-(5-(3-cyano-6-(1-methyl-1H-pyrazol-4-yl)pyrazolo[1,5-a]pyridin-4-yl)pyrazin-2-yl)-5-methyloctahydrocyclopenta[c]pyrrol-5-yl)picolinamide]

IC50 (human RET kinase): 10 to 50 nM | GI50 (BAF3-KIF5B-RET cells): > 100 nM
SMILES: CCOc1cc(-c2cnc(N3C4CC5CC3CC(N)(C5)C4)cn2)c2c(C#N)cnn2c1 [Example 163, 4-(5-((1R,3S,5s,7s)-5-amino-2-azaadamantan-2-yl)pyrazin-2-yl)-6-ethoxypyrazolo[1,5-a]pyridine-3-carbonitrile]

IC50 (human RET kinase): 10 to 50 nM | GI50 (BAF3-KIF5B-RET cells): > 100 nM
SMILES: COc1ccc(CN2[C@@H]3CC[C@H]2[C@H]2CN(c4ccc(-c5cc(OCC(C)(C)O)cn6ncc(C#N)c56)cn4)C[C@H]23)cn1 [Example 117, 6-(2-hydroxy-2-methylpropoxy)-4-(6-((3aR,4S,7R,7aS)-8-((6-methoxypyridin-3-yl)methyl)hexahydro-1H-4,7-epiminoisoindol-2(3H)-yl)pyridin-3-yl)pyrazolo[1,5-a]pyridine-3-carbonitrile]

IC50 (human RET kinase): ≤ 10 nM | GI50 (BAF3-KIF5B-RET cells): 10 to 50 nM
SMILES: Cn1cc(-c2cc(-c3cnc(N4C[C@@H]5C[C@@](C)(NC(=O)c6ccnc(C(F)(F)F)c6)C[C@@H]5C4)cn3)c3c(C#N)cnn3c2)cn1 [Example 147, N-((3aR,5s,6aS)-2-(5-(3-cyano-6-(1-methyl-1H-pyrazol-4-yl)pyrazolo[1,5-a]pyridin-4-yl)pyrazin-2-yl)-5-methyloctahydrocyclopenta[c]pyrrol-5-yl)-2-(trifluoromethyl)isonicotinamide]

IC50 (human RET kinase): ≤ 10 nM | GI50 (BAF3-KIF5B-RET cells): 10 to 50 nM
SMILES: Cn1cc(-c2cc(-c3cnc(N4C5CC6CC4CC(NC=O)(C6)C5)cn3)c3c(C#N)cnn3c2)cn1 [Example 107, N-((1R,3S,5s,7s)-2-(5-(3-cyano-6-(1-methyl-1H-pyrazol-4-yl)pyrazolo[1,5-a]pyridin-4-yl)pyrazin-2-yl)-2-azaadamantan-5-yl)formamide]

IC50 (human RET kinase): 50 to 100 nM | GI50 (BAF3-KIF5B-RET cells): > 100 nM
SMILES: COc1ccc(C(C)N2C[C@H]3CN(c4cnc(-c5cc(OCC(C)(C)O)cn6ncc(C#N)c56)cn4)C[C@H]3C2)cn1 (stereo partly drawn) [Example 176, 6-(2-hydroxy-2-methylpropoxy)-4-(5-((3aR,6aS)-5-(1-(6-methoxypyridin-3-yl)ethyl)hexahydropyrrolo[3,4-c]pyrrol-2(1H)-yl)pyrazin-2-yl)pyrazolo[1,5-a]pyridine-3-carbonitrile]

IC50 (human RET kinase): 50 to 100 nM | GI50 (BAF3-KIF5B-RET cells): > 100 nM
SMILES: CC(C)(O)COc1cc(-c2cnc(N3C[C@H]4CN(Cc5ccc(C#N)nc5)C[C@H]4C3)cn2)c2c(C#N)cnn2c1 [Example 177, 4-(5-((3aR,6aS)-5-((6-cyanopyridin-3-yl)methyl)hexahydropyrrolo[3,4-c]pyrrol-2(1H)-yl)pyrazin-2-yl)-6-(2-hydroxy-2-methylpropoxy)pyrazolo[1,5-a]pyridine-3-carbonitrile]

IC50 (human RET kinase): 10 to 50 nM | GI50 (BAF3-KIF5B-RET cells): 10 to 50 nM
SMILES: COc1ccc(C(=O)N[C@@H]2C[C@@H]3CN(c4ccc(-c5cc(OCC(C)(C)O)cn6ncc(C#N)c56)cn4)C[C@@H]3C2)cn1 [Example 159, N-((3aR,5r,6aS)-2-(5-(3-cyano-6-(2-hydroxy-2-methylpropoxy)pyrazolo[1,5-a]pyridin-4-yl)pyridin-2-yl)octahydrocyclopenta[c]pyrrol-5-yl)-6-methoxynicotinamide]

IC50 (human RET kinase): ≤ 10 nM | GI50 (BAF3-KIF5B-RET cells): ≤ 10 nM
SMILES: COc1ccc(C(=O)NC23CC4CC(C2)N(c2cnc(-c5cc(-c6cnn(C)c6)cn6ncc(C#N)c56)cn2)C(C4)C3)cn1 [Example 165, N-((1R,3S,5s,7s)-2-(5-(3-cyano-6-(1-methyl-1H-pyrazol-4-yl)pyrazolo[1,5-a]pyridin-4-yl)pyrazin-2-yl)-2-azaadamantan-5-yl)-6-methoxynicotinamide]

IC50 (human RET kinase): 10 to 50 nM | GI50 (BAF3-KIF5B-RET cells): > 100 nM
SMILES: COc1ccc(C(=O)N[C@@]2(C)C[C@H]3CN(c4ccc(-c5cc(OCC(C)(C)O)cn6ncc(C#N)c56)cn4)C[C@H]3C2)cn1 [Example 172, N-((3aR,5r,6aS)-2-(5-(3-cyano-6-(2-hydroxy-2-methylpropoxy)pyrazolo[1,5-a]pyridin-4-yl)pyridin-2-yl)-5-methyloctahydrocyclopenta[c]pyrrol-5-yl)-6-methoxynicotinamide]
